The record followed here is patent US11957687B2 (REGENERON PHARMACEUTICALS, INC., priority 2019, dated 2024).

The target in this test is HSD17B13 (Homo sapiens (Human), UniProt Q7Z5P4). Kind of test: HSD17B13 enzymatic inhibition assay (150 nM or 50 nM HSD17B13). In kind it is biochemical.
Where [1] appears, read: 150 nM HSD17B13, read-out: Inhibition of 150 nM of HSD17B13 IC50.
Where [2] appears, read: 50 nM HSD17B13, read-out: Inhibition of 50 nM of HSD17B13 IC50.

Like-named read-outs stand apart in the source and are kept apart here.

Chain of HSD17B13 (Q7Z5P4 other isoform, or with tags, fused parts or gaps): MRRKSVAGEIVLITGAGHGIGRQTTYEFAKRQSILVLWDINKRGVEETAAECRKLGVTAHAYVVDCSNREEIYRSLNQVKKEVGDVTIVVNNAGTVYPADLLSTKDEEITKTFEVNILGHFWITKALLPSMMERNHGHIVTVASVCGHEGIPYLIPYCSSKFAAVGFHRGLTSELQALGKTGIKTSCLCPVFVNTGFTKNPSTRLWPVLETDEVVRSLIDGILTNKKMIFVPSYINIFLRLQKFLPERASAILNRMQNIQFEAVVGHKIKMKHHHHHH

`COc1cccc(C(NC(=O)c2ccc(C(F)(F)F)[nH]c2=O)c2ccccc2)c1` (centres unmarked) [Compound 4, N-((3-methoxyphenyl)(phenyl)methyl)-2-oxo-6-(trifluoromethyl)-1,2-dihydropyridine-3-carboxamide]: under setting [1], the IC50 turned out to be 4700 nM.

As for `O=C(NC1c2ccccc2C=Cc2ccccc21)c1ccc(C(F)(F)F)[nH]c1=O` [Compound 5A, N-(5H-dibenzo[a,d][7]annulen-5-yl)-2-oxo-6-(trifluoromethyl)-1,2-dihydropyridine-3-carboxamide], under setting [2], the IC50 came to 1520 nM.

Turning to `O=C(NC(c1ccccc1)c1cccc(Cl)c1)c1ccc(C(F)(F)F)[nH]c1=O` (centres unmarked) [Compound 6, N-((3-chlorophenyl)(phenyl)methyl)-2-oxo-6-(trifluoromethyl)-1,2-dihydropyridine-3-carboxamide], under setting [1], the IC50 worked out at 4520 nM.

On to `Nc1ccc(C(NC(=O)c2ccc(C(F)(F)F)[nH]c2=O)c2ccccc2)cc1` (centres unmarked) [Compound 6A, N-((4-aminophenyl)(phenyl)methyl)-2-oxo-6-(trifluoromethyl)-1,2-dihydropyridine-3-carboxamide], for which, under setting [2], the IC50 was 5150 nM.

On to `COc1ccccc1C(NC(=O)c1ccc(C(F)(F)F)[nH]c1=O)c1ccccc1` (centres unmarked) [Compound 8, N-((2-methoxyphenyl)(phenyl)methyl)-2-oxo-6-(trifluoromethyl)-1,2-dihydropyridine-3-carboxamide], for which the IC50 by setting is: under setting [2], 1610 nM; under setting [1], 3230 nM.

For `O=C(NC1c2ccc(OC(F)(F)F)cc2-c2cc(OC(F)(F)F)ccc21)c1ccc(C(F)(F)F)[nH]c1=O` [Compound 8A, N-(3,6-bis(trifluoromethoxy)-9H-fluoren-9-yl)-2-oxo-6-(trifluoromethyl)-1,2-dihydropyridine-3-carboxamide], under setting [2], the IC50 came out at 6310 nM.

Turning to `O=C(NC(c1ccccc1)c1ccc(N2CCCCC2)cc1)c1ccc(C(F)(F)F)[nH]c1=O` (centres unmarked) [Compound 9A, 2-oxo-N-(phenyl(4-(piperidin-1-yl)phenyl)methyl)-6-(trifluoromethyl)-1,2-dihydropyridine-3-carboxamide], under setting [2], the IC50 worked out at 1200 nM.

For `O=C(NC(c1ccc(Br)cc1)c1ccc(Br)cc1)c1ccc(C(F)(F)F)[nH]c1=O` [Compound 10, N-(bis(4-bromophenyl)methyl)-2-oxo-6-(trifluoromethyl)-1,2-dihydropyridine-3-carboxamide], the IC50 under setting [2] amounted to 670 nM.

`O=C(NC1c2ccccc2Sc2ccccc21)c1ccc(C(F)(F)F)[nH]c1=O` [Compound 10A, 2-oxo-N-(9H-thioxanthen-9-yl)-6-(trifluoromethyl)-1,2-dihydropyridine-3-carboxamide]: under setting [2], the IC50 turned out to be 1460 nM.

`O=C(NC(c1ccc(OC(F)(F)F)cc1)c1ccc(OC(F)(F)F)cc1)c1ccc(C(F)(F)F)[nH]c1=O` [Compound 11, N-(bis(4-(trifluoromethoxy)phenyl)methyl)-2-oxo-6-(trifluoromethyl)-1,2-dihydropyridine-3-carboxamide]: the IC50 under setting [2] stood at 1090 nM.

For the compound `O=C(NC1c2ccccc2S(=O)(=O)c2ccccc21)c1ccc(C(F)(F)F)[nH]c1=O` [Compound 11A, N-(10,10-dioxido-9H-thioxanthen-9-yl)-2-oxo-6-(trifluoromethyl)-1,2-dihydropyridine-3-carboxamide], the IC50 under setting [2] was determined as 1190 nM.

Take `Cc1ccc(C(NC(=O)c2cnc(C(F)(F)F)[nH]c2=O)c2ccc(C)cc2)cc1` [Compound 13A, N-(di-p-tolylmethyl)-6-oxo-2-(trifluoromethyl)-1,6-dihydropyrimidine-5-carboxamide]: the IC50 under setting [2] is 1310 nM.

Take `O=C(NC1c2ccc(Cl)cc2-c2cc(Cl)ccc21)c1ccc(C(F)(F)F)[nH]c1=O` [Compound 14A, N-(3,6-dichloro-9H-fluoren-9-yl)-2-oxo-6-(trifluoromethyl)-1,2-dihydropyridine-3-carboxamide]: the concentration for half-maximal inhibition (IC50) under setting [2] was 4280 nM.

`O=C(NC(c1ccccc1)c1ccc(O)c(F)c1)c1ccc(C(F)(F)F)[nH]c1=O` (centres unmarked) [Compound 16A, N-((3-fluoro-4-hydroxyphenyl)(phenyl)methyl)-2-oxo-6-(trifluoromethyl)-1,2-dihydropyridine-3-carboxamide]: under setting [2], the IC50 was found to be 3640 nM.

With `O=C(NC(c1ccccc1)c1ccccc1C(F)(F)F)c1ccc(C(F)(F)F)[nH]c1=O` (centres unmarked) [Compound 17A, 2-oxo-N-(phenyl(2-(trifluoromethyl)phenyl)methyl)-6-(trifluoromethyl)-1,2-dihydropyridine-3-carboxamide], the IC50 under setting [2] is 3100 nM.

Turning to `Cc1ccc(C(NC(=O)c2cnc(C(F)(F)F)[nH]c2=O)c2ccccc2)cc1C` (centres unmarked) [Compound 18A, N-((3,4-dimethylphenyl)(phenyl)methyl)-6-oxo-2-(trifluoromethyl)-1,6-dihydropyrimidine-5-carboxamide], the IC50 under setting [2] was determined as 2620 nM.

For the compound `Cc1cccc(C(NC(=O)c2ccc(C(F)(F)F)[nH]c2=O)c2ccccc2)c1` (centres unmarked) [Compound 20, N-(phenyl(m-tolyl)methyl)-2-oxo-6-(trifluoromethyl)-1,2-dihydropyridine-3-carboxamide], the IC50 under setting [1] was 2110 nM.

As for `CC(NC(=O)c1ccc(C(F)(F)F)[nH]c1=O)(c1ccc(O)cc1)c1ccc(O)cc1` [Compound 21A, N-(1,1-bis(4-hydroxyphenyl)ethyl)-2-oxo-6-(trifluoromethyl)-1,2-dihydropyridine-3-carboxamide], under setting [2], the IC50 is 1850 nM.

As for `CCC(NC(=O)c1ccc(C(F)(F)F)[nH]c1=O)c1ccc(Cl)cc1` (centres unmarked) [Compound 22A, N-(1-(4-chlorophenyl)propyl)-2-oxo-6-(trifluoromethyl)-1,2-dihydropyridine-3-carboxamide], the IC50 under setting [2] was found to be 2960 nM.

With `O=C(NC(c1ccc(O)cc1)c1ccc(O)cc1)c1ccc(C(F)(F)F)[nH]c1=O` [Compound 23, N-(bis(4-hydroxyphenyl)methyl)-2-oxo-6-(trifluoromethyl)-1,2-dihydropyridine-3-carboxamide], under setting [2], the IC50 amounted to 4240 nM.

`O=C(NC(c1ccc(CC(F)(F)F)cc1)c1ccc(CC(F)(F)F)cc1)c1ccc(C(F)(F)F)[nH]c1=O` [Compound 23A, N-(bis(4-(2,2,2-trifluoroethyl)phenyl)methyl)-2-oxo-6-(trifluoromethyl)-1,2-dihydropyridine-3-carboxamide]: the IC50 under setting [2] is 990 nM.

As to `C/C=C/c1ccc(C(NC(=O)c2ccc(C(F)(F)F)[nH]c2=O)c2ccccc2)cc1` (centres unmarked) [Compound 29, (E)-2-oxo-N-(phenyl(4-(prop-1-en-1-yl)phenyl)methyl)-6-(trifluoromethyl)-1,2-dihydropyridine-3-carboxamide], under setting [2], the IC50 stood at 470 nM.

As to `C=C(C)c1ccc(C(NC(=O)c2ccc(C(F)(F)F)[nH]c2=O)c2ccccc2)cc1` (centres unmarked) [Compound 30, 2-oxo-N-(phenyl(4-(prop-1-en-2-yl)phenyl)methyl)-6-(trifluoromethyl)-1,2-dihydropyridine-3-carboxamide], under setting [2], the IC50 came out at 750 nM.

Turning to `O=C(NC(c1ccccc1)c1ccc(C2=CCCC2)cc1)c1ccc(C(F)(F)F)[nH]c1=O` (centres unmarked) [Compound 31, N-((4-(cyclopent-1-en-1-yl)phenyl)(phenyl)methyl)-2-oxo-6-(trifluoromethyl)-1,2-dihydropyridine-3-carboxamide], the IC50 under setting [2] was 460 nM.

For `O=C(NC(c1ccccc1)c1ccc(C2=CCCCC2)cc1)c1ccc(C(F)(F)F)[nH]c1=O` (centres unmarked) [Compound 32, 2-oxo-N-(phenyl(2′,3′,4,5′-tetrahydro-[1,1′-biphenyl]-4-yl)methyl)-6-(trifluoromethyl)-1,2-dihydropyridine-3-carboxamide], the IC50 under setting [2] turned out to be 400 nM.

In the case of `O=C(NC(c1ccccc1)c1ccc(C2=CCOCC2)cc1)c1ccc(C(F)(F)F)[nH]c1=O` (centres unmarked) [Compound 33, N-((4-(3,6-dihydro-2H-pyran-4-yl)phenyl)(phenyl)methyl)-2-oxo-6-(trifluoromethyl)-1,2-dihydropyridine-3-carboxamide], the IC50 under setting [2] was 820 nM.

For `O=C(NC(c1ccc(F)cc1)c1ccc(F)cc1)c1ccc(C(F)(F)F)[nH]c1=O` [Compound 34, N-(bis(4-fluorophenyl)methyl)-2-oxo-6-(trifluoromethyl)-1,2-dihydropyridine-3-carboxamide], under setting [2], the IC50 amounted to 1630 nM.

For the compound `O=C(NC(c1ccccc1)c1ccc(C2CCCC2)cc1)c1ccc(C(F)(F)F)[nH]c1=O` (centres unmarked) [Compound 38, N-((4-cyclopentylphenyl)(phenyl)methyl)-2-oxo-6-(trifluoromethyl)-1,2-dihydropyridine-3-carboxamide], under setting [2], the IC50 was determined as 450 nM.

For the compound `O=C(NC(c1ccccc1)c1ccc(C2CCCCC2)cc1)c1ccc(C(F)(F)F)[nH]c1=O` (centres unmarked) [Compound 39, N-((4-cyclohexylphenyl)(phenyl)methyl)-2-oxo-6-(trifluoromethyl)-1,2-dihydropyridine-3-carboxamide], under setting [2], the IC50 worked out at 490 nM.

For `O=C(NC1c2ccccc2CCc2ccccc21)c1ccc(C(F)(F)F)[nH]c1=O` [Compound 40, N-(10,11-dihydro-5H-dibenzo[a,d][7]annulen-5-yl)-2-oxo-6-(trifluoromethyl)-1,2-dihydropyridine-3-carboxamide], the IC50 under setting [2] worked out at 1650 nM.

Take `CN(C)c1ccc(C(NC(=O)c2ccc(C(F)(F)F)[nH]c2=O)c2ccccc2)cc1` (centres unmarked) [Compound 41, N-((4-(dimethylamino)phenyl) (phenyl)methyl)-2-oxo-6-(trifluoromethyl)-1,2-dihydropyridine-3-carboxamide]: the IC50 under setting [2] was 1290 nM.

`CCc1ccc2c(c1)-c1cc(CC)ccc1C2NC(=O)c1ccc(C(F)(F)F)[nH]c1=O` [Compound 42, N-(3,6-diethyl-9H-fluoren-9-yl)-2-oxo-6-(trifluoromethyl)-1,2-dihydropyridine-3-carboxamide]: the IC50 under setting [2] is 1300 nM.

On to `O=C(NC1c2ccc(O)cc2-c2cc(O)ccc21)c1ccc(C(F)(F)F)[nH]c1=O` [Compound 45, N-(3,6-dihydroxy-9H-fluoren-9-yl)-2-oxo-6-(trifluoromethyl)-1,2-dihydropyridine-3-carboxamide], for which the IC50 under setting [2] was found to be 1750 nM.

On to `O=C(NC1c2ccc(OC(F)F)cc2-c2cc(OC(F)F)ccc21)c1ccc(C(F)(F)F)[nH]c1=O` [Compound 47, N-(3,6-bis(difluoromethoxy)-9H-fluoren-9-yl)-2-oxo-6-(trifluoromethyl)-1,2-dihydropyridine-3-carboxamide], for which the IC50 under setting [2] came out at 1830 nM.
